Results on six compounds are retold here after PubChem BioAssay (NCI).

Common to all, as to experiment: growth of human tumour cells (NCI), 48 h
Test [1] has as its system NCI-H522 lung.
Test [2] relates to IGROV1 ovarian.
For test [3], the system named is MDA-MB-435.
For test [4], the system named is NCI/ADR-RES ovarian.
Test [5] concerns RPMI-8226 leukemia.
Test [6] has as its system EKVX NSCLC.
For test [7], the system named is SK-MEL-2 melanoma.
For test [8], the system named is MDA-MB-231 breast.
In test [9] the test system is HS 578T breast.
In test [10] the test system is HCT-116 colon.
In test [11] the test system is SN12C renal.
Test [12] relates to OVCAR-3 ovarian.
For test [13], the system named is SK-MEL-28 melanoma.
Test [14] deals with SNB-19 CNS.
The test system of test [15] is A549 NSCLC.
Test [16] relates to UACC-257 melanoma.
Test [17] concerns LOX IMVI melanoma.
For test [18], the system named is UACC-62 melanoma.
Test [19] deals with HT29 colon.
Test [20] concerns MDA-N.

The structures appear in SMILES notation.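 Five concentrations, 48 hours, 96-well plates. Definition used: TGI = concentration required for complete inhibition of growth.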

Take `CC1CC(N2CCOCC2)=Nc2ccccc2N1Cc1ccccc1` (stereo not drawn): the TGI in test [1], in test [2], in test [3], in [4], in [5] and in [6] was greater than 100 µM throughout. Also, the TGI in test [7], in test [8], in test [9], in test [10], in test [11] and in test [12] was greater than 100 µM throughout. The TGI in [13], in test [14], in test [15], in [16], in test [17] and in test [18] was greater than 100 µM each time. The compound also registered a TGI in [19] greater than 100 µM.

On to `c1ccc(C2=C(c3ccccc3)Sc3nnc(CCCCCCCCc4nnc5n4NC(c4ccccc4)=C(c4ccccc4)S5)n3N2)cc1`, for which the TGI in [1], in [3], in test [4], in test [5], in test [6] and in test [7] was greater than 100 µM in each case. For the same compound, the TGI in test [8], in test [9], in test [10], in [11], in test [12] and in [13] was greater than 100 µM each time. Further, the TGI in [14], in [15], in [16], in test [17], in test [18] and in [19] was greater than 100 µM each time.

`O=C1CSC(c2ccccc2O)N1c1ccc(Oc2ccc(Cl)cc2)c(Cl)c1` (stereo not drawn): the TGI in test [1] was 36.8 µM; in [2], 77.4 µM; in [3], 69 µM; in [4] it was 48.4 µM; in test [5] it was 89.1 µM; in test [6], 45.9 µM. Further, the TGI in [7] amounted to 65.7 µM; in test [8], 34.3 µM; in test [9], 38 µM; in [10], 28.6 µM; in [11], 39.5 µM; in [12], 62.4 µM. For the same compound, the TGI turned out to be 57.4 µM in [13]; 65 µM in test [14]; 49.3 µM in test [15]; 81.4 µM in test [16]; 32.8 µM in test [17]; 34.3 µM in [18]. For the same compound, the TGI in [19] amounted to 37.3 µM.

Regarding `O=S(=O)(O)c1ccc2cc(N=Nc3c(O)ccc4ccccc34)ccc2c1`, the TGI in [1], in test [2], in test [3], in test [4], in test [6] and in [7] was greater than 100 µM throughout. Besides, the TGI in [9], in [10], in test [11], in test [12], in test [14] and in [15] was greater than 100 µM in each case. The TGI in [16], in [20], in [18] and in [19] was greater than 100 µM each time.

Take `CN(CCNC(=S)c1cn(C)c2c1ccc1ccccc12)CCNC(=S)c1cn(C)c2c1ccc1ccccc12`: the TGI in test [1], in test [2], in test [3], in test [4], in test [6] and in test [7] was greater than 100 µM in each case. The TGI in test [8], in [9], in test [10], in test [11], in [12] and in [13] was greater than 100 µM throughout. Besides, the TGI in test [14], in test [15], in [16], in [17], in test [18] and in [19] was greater than 100 µM in each case.

Take `COc1ccc(C(=O)Oc2c(C#N)sc3c2c(=O)n(-c2ccccc2)c(=S)n3-c2ccccc2)cc1`: the TGI was 4.11 µM in [1]; 44.4 µM in test [2]; 60.7 µM in [3]; 52 µM in test [4]; 47.1 µM in test [5]; 31.3 µM in [6]. The TGI in test [8] was greater than 100 µM; in [9], 69.6 µM; in [10], 48.9 µM; in test [11], 68.2 µM; in [12] it was 97.4 µM; in [13] it was greater than 100 µM. Further, the TGI is greater than 100 µM in test [14]; greater than 100 µM in test [15]; greater than 100 µM in test [16]; 46.2 µM in [17]; 24.5 µM in test [18]; 62 µM in test [19].
